Paper PMC11931052, “Efficacy of dispirotripiperazine PDSTP in a golden Syrian hamster model of SARS-CoV-2 infection” (Frontiers in Microbiology, 2025)

Assay: Cytotoxicity (MTT test) in Vero E6 cell line
Format: cell-based, African Green Monkey (Cercopithecus aethiops)
Settings: African green monkey, mean ± SD, three independent experiments
Procedure: The microtetrazolium test (MTT test) was used to study the cytotoxicity of the compounds. Vero cells were seeded in 96-well plates at an initial density of 3×10^5 cells/mL, in Gibco Dulbecco’s Modified Eagle Medium supplemented with L-glutamine and 25 mg/L kanamycin, and 10 % fetal bovine serum (FBS) (DMEM, Thermo Fisher Scientific, Waltham, MA USA). Cell cultures were then incubated at 37 °C in a 5 % CO2 atmosphere, in the absence or presence of serial dilutions of test compounds. The test medium used for the cytotoxic assay as well as for the antiviral assay contained 1 % of the appropriate serum. Cell viability was determined after 72 h at 37 °C by the MTT method as previously reported. The cell viability was expressed as a percentage of the control. The 50% cytotoxic concentration (CC50) of each compound was defined as the concentration of the compound that reduced the absorbance (OD570) of the treated cells to 50% when compared with that of untreated cells. CC50 mean values were calculated from at least three independent experiments.

Cc1nc(N2CC[N+]3(CC2)CC[N+]2(CCNCC2)CC3)c([N+](=O)[O-])c(N2CC[N+]3(CC2)CC[N+]2(CCNCC2)CC3)n1.Cl.Cl.O.O.O.O.O.O.O.O.O.[Cl-].[Cl-].[Cl-].[Cl-] [PDSTP, 3,3′-(2-methyl-5-nitropyrimidine-4,6-diyl)bis-3,12-diaza-6,9-diazonia-dispiro[5.2.5.2]hexadecane tetrachloride dihydrochloride nonahydrate]
CC50 at 72 h: 183 ± 40.5 µM
